Literature values, collected in patent US6706285B1, “Enteric coated formulation of a benzimidazole derivative and method for preparation thereof” (Hanms Pharm. Co., Ltd., priority 1998, dated 2004).
Read-outs that look alike come from different tables or passages of the source.

Structure (SMILES): COc1ccc2[nH]c([S+]([O-])Cc3ncc(C)c(OC)c3C)nc2c1 (stereo not drawn) [omeprazole, 5-methoxy-2[[(4-methoxy-3,5-dimethyl-2-pyridinyl)methyl]sulfinyl]-1H-benzimidazole]
- half-life (acidic condition at a pH of 4 or less): less than 10 minutes
- half-life (at a pH of 11): about 300 days
- half-life (neutral condition at a pH of about 7.0): about 14 hours
